Measured values published in patent US11912667B2, “Morphic forms of hexadecyloxypropyl-phosphonate esters and methods of synthesis thereof” (EMERGENT BIODEFENSE OPERATIONS LANSING LLC, priority 2013, dated 2024).
Several values for one entry are separate records, joined by “and”; a condition that tells them apart may be missing. Equal entries are not always repeated.

Experiments:
Type in all cases: physicochemical
[1] = Estimated solubility by aliquot addition of solvent, visual inspection; details: for solubility: thermodynamic from solid
Description: The present disclosure provides morphic Form II with low solubility in methanol. The solubility may be estimated based on the total volume of solvent needed to provide complete dissolution. The actual solubility may be greater than the value calculated due to the incremental addition of solvent and kinetics of dissolution of the material. […] Solubility Determination: Aliquots of test solvents or solvent mixtures were added to weighed samples of Compound 1. Samples were sonicated as needed between additions to facilitate dissolution. Complete dissolution of the test material in each solvent was determined by visual inspection. The solubility was estimated based on the total volume of solvent needed to provide complete dissolution. The actual solubility may be greater than the value calculated due to the incremental addition of solvent and kinetics of dissolution of the material. […] See Table 2 and discussion under “Solubility” section in the “Detailed Description” of the present disclosure.

[2] = Stable form screening slurries and interconversion studies; details: for Form recovered from slurries: seeded with Form I, about two weeks
Description: In order to aid in the design of solid form screening experiments, solubility estimates were completed in various solvent systems using Form II at ambient and elevated temperature. […] Slurries were set up in a variety of solvent systems to determine the stable form and the potential of Compound 1 to form stable solvates. The slurries were prepared using Form II and each was seeded with Form I. Each of the slurries was stirred for about two weeks and most of the slurries were run at room temperature although a few were run at sub-ambient and elevated temperatures (˜45° C.). […] A few samples did show a minor amount of Form I in Form II likely due to poor conversion kinetics due to limited solubility. […] Interconversion studies starting with a mixture of Form I and Form II were also run in methanol at room temperature and ˜45° C.

[3] = Weight increase upon increasing relative humidity; details: upon increasing relative humidity from 5.0% to 95.0%
Description: In another embodiment of the invention, provided herein is Form II characterized as a solid form of Compound 1, such that the solid form undergoes a weight increase of less than 1.5% upon increasing relative humidity from 5.0% to 95.0%.

[4] = Relative humidity (RH) stressing of Form II
Description: In some embodiments, a composition comprising morphic Form II of the present disclosure converts to a hydrate Form (e.g., Form H) if stored under relative humidity (RH) of 40% or more. In some embodiments, a composition comprising morphic Form II of the present disclosure partially converts to morphic Form H if stored under relative humidity of equal to or more than 40% for several days. […] A complete conversion of a composition comprising the morphic Form II of the present disclosure occurs at about equal to or more than 80% RH, about equal to or more than 81% RH, about equal to or more than 82% RH, about equal to or more than 83% RH, about equal to or more than 84% RH, about equal to or more than 85% RH, about equal to or more than 86% RH, about equal to or more than 87% RH, about equal to or more than 88% RH, about equal to or more than 89% RH over between 5-20 days (e.g., 5 days, 6 days, 7 days, 8 days, 9 days, 10 days, 11 days, 12 days, 13 days, 14 days, 15 days, 16 days, 17 days, 18 days, 19 days, 20 days).
The present disclosure provides that exposure of Form II to higher humidity is sufficient for conversion to the hydrate form.

[5] = Particle size analysis (PSA), Malvern Mastersizer 2000
Description: Particle size data was acquired using a Malvern Instruments Mastersizer 2000 equipped with a Hydro2000 μP dispersion unit. Data was collected and analyzed using Mastersizer 2000 software (v. 5.60) using volume based measurements. NIST-traceable glass beads were used to qualify the instrument.

[6] = Slurry conversion of Form II to Form H in methanol:water, seeded with Form H; details: for Results (form recovered from slurry): stirred 7-9 days
Description: The present disclosure provides that an anhydrous form (e.g. Form II) is produced without forming a hydrate form (e.g., Form H) during the crystallization process, by determining the critical water concentration below which the anhydrous form is the stable form. The critical water concentration is determined by varying the methanol-water concentrations in the slurries.
In another embodiment, at concentrations of 97:3 methanol:water and greater, Form H was recovered from the slurries. These embodiments provide that the critical water concentration for forming Form II is between 1 and 3% water. In some embodiments, water in the initial methanol solvent is not accounted for, which results in slightly higher final water concentration than 1 and 3%. In additional embodiments, experiments, by varying the methanol-water concentrations in the slurries, is carried out at room temperature or at about 45° C. In one embodiment, the critical water concentration is less than 5% at room temperature and less than 10% at about 45° C. Mixtures of Form II and Form H are observed to convert to either Form II or Form H in methanol depending on the exact water content. The present disclosure provides that during crystallization of Form II, critical water activity remains very low up to about 45° C. and that water content in the final methanol recrystallization is a critical process parameter to control to avoid operating in conditions which favors formation of Form H.

[7] = Methanol solubility and metastable zone (MSZ), Crystal16; details: for Cloud Point 2: 0.03 C./min cooling rate; for Cloud Point 1: 0.5° C./min cooling rate
Description: MSZW is a nucleation kinetic-limited parameter that is highly dependent on process condition. Many factors may influence the value of MSZW, e.g., rate of cooling, agitation, the presence of foreign particles and impurities. MSZW decreases as stirrer speed increases; MSZW widens at N>400 rpm; and MSZW widens as cooling rate rises. In one embodiment, large differences in the metastable zone are observed for both Form II and Form I between the rapid cooling rate of about 0.5° C./min and a very slow cooling rate of about 0.03° C./min. In another embodiment, narrow metastable cooling rates are observed at higher concentrations (e.g., about 100 mg/mL).

[8] = crystallized from methanol ~10 vols, seed ~0.5% Form II at ~58° C.
[9] = crystallized from methanol ~10 vols, seed ~3% Form II
[10] = 10% of total volume of particles no larger than the indicated size
[11] = 50% of total volume of particles no larger than the indicated size
[12] = 90% of total volume of particles no larger than the indicated size

CCCCCCCCCCCCCCCCOCCCOP(=O)(O)CO[C@H](CO)Cn1ccc(N)nc1=O [Form II, phosphonic acid, [[(S)-2-(4-amino-2-oxo-1(2H)-pyrimidinyl)-1-(hydroxymethyl)ethoxy]methyl]mono[3-(hexadecyloxy)propyl] ester]
Solubility in various solvent systems ([1]; ambient and elevated temperature, each of the solvents tested): poor solubility
solubility ([1]; aqueous with cosolvent or surfactant or cyclodextrin, Methanol:Water 1:1, RT, estimated): < 3000 µg/mL
solubility ([1]; aqueous with cosolvent or surfactant or cyclodextrin, Methanol:Water 1:1, ~63 °C, estimated): < 14000 µg/mL
solubility ([1]; organic solvent or mixture, Trifluoroethanol, estimate): > 5000 µg/mL
Form recovered from slurries ([2]; anhydrous solvent systems, mostly room temperature): Form II was recovered
Form recovered from slurries ([2]; aqueous solvent systems): converted to the hydrated form, Form H
Solids recovered from interconversion studies ([2]; starting with a mixture of Form I and Form II, methanol, room temperature and ~45° C.): consistent with Form II
weight increase [3]: less than 1.5%
Conversion to hydrate form on RH exposure ([4]; about 43% RH for about 12 days): partially converts to a hydrate form
Conversion from Form II to Form H on RH exposure ([4]; about 43 to about 85% RH for about 12 days): minor conversion from Form II to Form H
Conversion from Form II to Form H on RH exposure ([4]; about 85% RH): complete conversion of Form II to Form H
particle size distribution, volume weighted mean ([5]; FIG. 5): 25.663
d10 [5, 8]: d10 = 17.8 μm
d50 [5, 8]: 69.6 μm;
d90 [5, 8]: d90 = 160.9 μm
d10 [5, 9]: d10 = 9.8 μm
d50 [5, 9]: 34.4 μm;
d90 [5, 9]: d90 = 101.7 μm
Results (form recovered from slurry) ([6]; Methanol:water (80:20), ~44-45 °C): Form H
Results (form recovered from slurry) ([6]; Methanol:water (85:15), ~44-45 °C): Form H
Results (form recovered from slurry) ([6]; Methanol:water (90:10), RT): Form H
Results (form recovered from slurry) ([6]; Methanol:water (90:10), ~44-45 °C): Form H
Results (form recovered from slurry) ([6]; Methanol:water (93:7), RT): Form H
Results (form recovered from slurry) ([6]; Methanol:water (93:7), ~2-8 °C): Form H
Results (form recovered from slurry) ([6]; Methanol:water (95:5), RT): Form H
Results (form recovered from slurry) ([6]; Methanol:water (95:5), ~2-8 °C): Form H
Results (form recovered from slurry) ([6]; Methanol:water (95:5), ~44-45 °C): Form II +
Results (form recovered from slurry) ([6]; Methanol:water (97:3), RT): Form II +
Results (form recovered from slurry) ([6]; Methanol:water (97:3), ~2-8 °C): Form H
Results (form recovered from slurry) ([6]; Methanol:water (99:1), ~2-8 °C): Form II
critical water concentration ([6]; about 45° C. slurries in methanol:water): less than 10%
critical water concentration ([6]; room temperature slurries in methanol:water): less than 5%
Solubility in methanol compared to Form I [7]: Lower solubility
Clear Point ([7]; 20.3 mg/mL): 53.6 °C
Cloud Point 2 ([7]; 20.3 mg/mL): 38.2 °C
Cloud Point 1 ([7]; 20.3 mg/mL): 37.6 °C
Clear Point ([7]; 29.4 mg/mL): 56.2 °C
Cloud Point 2 ([7]; 29.4 mg/mL): 44.6 °C
Cloud Point 1 ([7]; 29.4 mg/mL): 45.1 °C
Clear Point ([7]; 38.9 mg/mL): 58.1 °C
Cloud Point 2 ([7]; 38.9 mg/mL): 51.1 °C
Cloud Point 1 ([7]; 38.9 mg/mL): 45.1 °C
Clear Point ([7]; 50.5 mg/mL): 60.2 °C
Cloud Point 2 ([7]; 50.5 mg/mL): 56.6 °C
Cloud Point 1 ([7]; 50.5 mg/mL): 51.0 °C
Clear Point ([7]; 64.3 mg/mL): 60.5 °C
Cloud Point 2 ([7]; 64.3 mg/mL): 58.8 °C
Cloud Point 1 ([7]; 64.3 mg/mL): 48.5 °C
Clear Point ([7]; 80.4 mg/mL): 61.2 °C
Cloud Point 2 ([7]; 80.4 mg/mL): 57.9 °C
Cloud Point 1 ([7]; 80.4 mg/mL): 49.7 °C
Clear Point ([7]; 95.6 mg/mL): 61.9 °C
Cloud Point 2 ([7]; 95.6 mg/mL): 59.9 °C
Cloud Point 1 ([7]; 95.6 mg/mL): 58.1 °C
Clear Point ([7]; 166.6 mg/mL): 63.1 °C
Cloud Point 2 ([7]; 166.6 mg/mL): 61.1 °C
Cloud Point 1 ([7]; 166.6 mg/mL): 58.1 °C

CCCCCCCCCCCCCCCCOCCCOP(=O)(O)CO[C@H](CO)Cn1ccc(N)nc1=O [Sample 1]
d10 [5, 10]: 19.297 μm
d50 [5, 11]: 81.603 μm
d90 [5, 12]: 168.698 μm

CCCCCCCCCCCCCCCCOCCCOP(=O)(O)CO[C@H](CO)Cn1ccc(N)nc1=O [Sample 3]
d10 [5, 10]: 19.896 μm
d50 [5, 11]: 101.748 μm and 101.745 μm

CCCCCCCCCCCCCCCCOCCCOP(=O)(O)CO[C@H](CO)Cn1ccc(N)nc1=O [Sample 4]
d10 [5, 10]: 17.410 μm
d50 [5, 11]: 85.440 μm
d90 [5, 12]: 199.029 μm
